{"source": "patent US11006631B2", "about": "“Substituted pyrimidinyloxy pyridine derivatives as herbicides” (FMC Corporation, priority 2015, dated 2021)", "assay_type_in_all_cases": "in vivo", "key": {"kochia (Kochia scoparia)": {"test_system": "kochia (Kochia scoparia)", "assay": "Test C postemergence, kochia", "source_text": "(§1) Seeds of plant species selected from blackgrass (Alopecurus myosuroides), ryegrass, Italian (Italian ryegrass, Lolium multiflorum), wheat (winter wheat, Triticum aestivum), galium (catchweed bedstraw, Galium aparine), corn (Zea mays), crabgrass, large (large crabgrass, Digitaria sanguinalis), foxtail, giant (giant foxtail, Setaria faberii), lambsquarters (Chenopodium album), morningglory (Ipomoea coccinea), nutsedge, yellow (yellow nutsedge, Cyperus esculentus), pigweed (Amaranthus retroflexus), johnsongrass (Sorghum halepense), ragweed (common ragweed, Ambrosia elatior), soybean (Glycine max), barnyardgrass (Echinochloa crus-galli), oilseed rape (Brassica napus), waterhemp (common waterhemp, Amaranthus rudis), chickweed (common chickweed, Stellaria media), oat, wild (wild oat, Avena fatua), kochia (Kochia scoparia), and velvetleaf (Abutilon theophrasti) were planted in pots containing Redi-Earth® planting medium (Scotts Company, 14111 Scottslawn Road, Marysville, Ohio 43041) comprising spaghnum peat moss, vermiculite, wetting agent and starter nutrients and treated with postemergence applications of a test chemical formulated in a non-phytotoxic solvent mixture which included a surfactant. Plants ranged in height from 2 to 18 cm (1- to 4-leaf stage) for postemergence treatments. Treated plants and controls were maintained in a greenhouse for 13 to 15 days, after which time all species were compared to controls and visually evaluated. Plant response ratings, summarized in Table C, are based on a scale of 0 to 100 where 0 is no effect and 100 is complete control. A dash (-) response means no test result."}, "[1]": {"test_system": "wheat (Triticum aestivum)", "assay": "Test A postemergence, wheat", "conditions": "0 to 100 scale", "method_in_brief": "(§2)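 Test chemicals in solvent with surfactant applied preemergence as directed soil spray, or postemergence to plants at one- to two-leaf stage (2–10 cm), in loam–sand soil. Injury visually rated versus untreated controls after about 10 days in greenhouse, on a 0 (no effect) to 100 (complete control) scale.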"}, "corn (Zea mays)": {"test_system": "corn (Zea mays)", "assay": "Test A postemergence, corn", "conditions": "0 to 100 scale", "method_in_brief": "as §2"}, "[2]": {"test_system": "sedge, umbrella (small-flower umbrella sedge, Cyperus difformis)", "assay": "Test B flooded paddy test, sedge, umbrella", "conditions": "Flood, 250 g ai/ha; scale of 0 to 100", "method_in_brief": "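In-water application to pots flooded 3 cm deep, plants at 2-leaf stage. Held in greenhouse 13–15 days at constant flood depth. Scored 0–100 by eye against controls.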"}, "[3]": {"test_system": "oat, wild (wild oat, Avena fatua)", "assay": "Test C postemergence, oat, wild", "source_text": "as §1"}, "[4]": {"test_system": "barnyardgrass (Echinochloa crus-galli)", "assay": "Test A postemergence, barnyardgrass", "conditions": "0 to 100 scale", "method_in_brief": "as §2"}, "[5]": {"test_system": "crabgrass, large (large crabgrass, Digitaria sanguinalis)", "assay": "Test C postemergence, crabgrass, large", "source_text": "as §1"}, "[6]": {"test_system": "foxtail, giant (giant foxtail, Setaria faberii)", "assay": "Test A preemergence, foxtail, giant", "conditions": "0 to 100 scale", "method_in_brief": "as §2"}, "[7]": {"test_system": "barnyardgrass (Echinochloa crus-galli)", "assay": "Test C postemergence, barnyardgrass", "source_text": "as §1"}, "[8]": {"test_system": "johnsongrass (Sorghum halepense)", "assay": "Test C postemergence, johnsongrass", "source_text": "as §1"}, "[9]": {"test_system": "pigweed (Amaranthus retroflexus)", "assay": "Test A preemergence, pigweed", "conditions": "0 to 100 scale", "method_in_brief": "as §2"}, "[10]": {"test_system": "nutsedge, yellow (yellow nutsedge, Cyperus esculentus)", "assay": "Test C postemergence, nutsedge, yellow", "source_text": "as §1"}, "[11]": {"test_system": "ryegrass, Italian (Italian ryegrass, Lolium multiflorum)", "assay": "Test C postemergence, ryegrass, Italian", "source_text": "as §1"}, "[12]": {"test_system": "galium (catchweed bedstraw, Galium aparine)", "assay": "Test A postemergence, galium", "conditions": "0 to 100 scale", "source_text": "(§3) Seeds of plant species selected from bamyardgrass (Echinochloa crus-galli), kochia (Kochia scoparia), ragweed (common ragweed, Ambrosia elatior), ryegrass, Italian (Italian ryegrass, Lolium multiflorum), foxtail, giant (giant foxtail, Setaria faberii), pigweed (Amaranthus retroflexus), crabgrass, large (large crabgrass, Digitaria sanguinalis), momingglory (Ipomoea spp.), velvetleaf (Abutilon theophrasti), wheat (Triticum aestivum), and corn (Zea mays) were planted into a blend of loam soil and sand and treated preemergence with a directed soil spray using test chemicals formulated in a non-phytotoxic solvent mixture which included a surfactant. At the same time, plants selected from these crop and weed species and also blackgrass (Alopecurus myosuroides), and galium (catchweed bedstraw, Galium aparine) were planted in pots containing the same blend of loam soil and sand and treated with postemergence applications of test chemicals formulated in the same manner. Plants ranged in height from 2 to 10 cm and were in the one- to two-leaf stage for the postemergence treatment. Treated plants and untreated controls were maintained in a greenhouse for approximately 10 days, after which time all treated plants were compared to untreated controls and visually evaluated for injury. Plant response ratings, summarized in Table A, are based on a 0 to 100 scale where 0 is no effect and 100 is complete control. A dash (-) response means no test result."}, "[13]": {"test_system": "velvetleaf (Abutilon theophrasti)", "assay": "Test C postemergence, velvetleaf", "source_text": "as §1"}, "[14]": {"test_system": "foxtail, giant (giant foxtail, Setaria faberii)", "assay": "Test A postemergence, foxtail, giant", "conditions": "0 to 100 scale", "method_in_brief": "as §2"}, "[15]": {"test_system": "oilseed rape (Brassica napus)", "assay": "Test C postemergence, oilseed rape", "source_text": "as §1"}, "[16]": {"test_system": "ragweed (common ragweed, Ambrosia elatior)", "assay": "Test A postemergence, ragweed", "conditions": "0 to 100 scale", "source_text": "as §3"}}}
{"smiles": "FC(F)c1cc(-c2ncccc2Oc2ncc(Cl)cn2)on1", "note": "[Compound 5, 5-chloro-2-[[2-[3-(difluoromethyl)-5-isoxazolyl]-3-pyridinyl]oxy]pyrimidine]", "values": [{"measurement": "Plant response rating, Kochia", "setting": "kochia (Kochia scoparia); 16 g ai/ha", "result": 90}, {"measurement": "Plant response rating, Kochia", "setting": "kochia (Kochia scoparia); 31 g ai/ha", "result": 90}, {"measurement": "Plant response rating, Kochia", "setting": "kochia (Kochia scoparia); 62 g ai/ha", "result": 90}, {"measurement": "Plant response rating, Kochia", "setting": "kochia (Kochia scoparia); 125 g ai/ha", "result": 90}, {"measurement": "Plant response rating, Wheat", "setting": "[1]; 31 g ai/ha", "result": 0}, {"measurement": "Plant response rating, Wheat", "setting": "[1]; 125 g ai/ha", "result": 10}, {"measurement": "Plant response rating, Corn", "setting": "corn (Zea mays); 31 g ai/ha", "result": 0}, {"measurement": "Plant response rating, Corn", "setting": "corn (Zea mays); 125 g ai/ha", "result": 10}, {"measurement": "Plant response rating, Sedge, Umbrella", "setting": "[2]", "result": 80}, {"measurement": "Plant response rating, Oat, Wild", "setting": "[3]; 16 g ai/ha", "result": 0}, {"measurement": "Plant response rating, Oat, Wild", "setting": "[3]; 31 g ai/ha", "result": 0}, {"measurement": "Plant response rating, Oat, Wild", "setting": "[3]; 62 g ai/ha", "result": 0}, {"measurement": "Plant response rating, Oat, Wild", "setting": "[3]; 125 g ai/ha", "result": 5}, {"measurement": "Plant response rating, Barnyardgrass", "setting": "[4]; 31 g ai/ha", "result": 0}, {"measurement": "Plant response rating, Barnyardgrass", "setting": "[4]; 125 g ai/ha", "result": 20}, {"measurement": "Plant response rating, Crabgrass, Large", "setting": "[5]; 16 g ai/ha", "result": 10}, {"measurement": "Plant response rating, Crabgrass, Large", "setting": "[5]; 31 g ai/ha", "result": 15}, {"measurement": "Plant response rating, Crabgrass, Large", "setting": "[5]; 62 g ai/ha", "result": 15}, {"measurement": "Plant response rating, Crabgrass, Large", "setting": "[5]; 125 g ai/ha", "result": 15}, {"measurement": "Plant response rating, Foxtail, Giant", "setting": "[6]; 31 g ai/ha", "result": 10}, {"measurement": "Plant response rating, Foxtail, Giant", "setting": "[6]; 125 g ai/ha", "result": 80}, {"measurement": "Plant response rating, Barnyardgrass", "setting": "[7]; 16 g ai/ha", "result": 0}, {"measurement": "Plant response rating, Barnyardgrass", "setting": "[7]; 31 g ai/ha", "result": 0}, {"measurement": "Plant response rating, Barnyardgrass", "setting": "[7]; 62 g ai/ha", "result": 5}, {"measurement": "Plant response rating, Barnyardgrass", "setting": "[7]; 125 g ai/ha", "result": 10}, {"measurement": "Plant response rating, Johnsongrass", "setting": "[8]; 16 g ai/ha", "result": 0}, {"measurement": "Plant response rating, Johnsongrass", "setting": "[8]; 31 g ai/ha", "result": 0}, {"measurement": "Plant response rating, Johnsongrass", "setting": "[8]; 62 g ai/ha", "result": 5}, {"measurement": "Plant response rating, Johnsongrass", "setting": "[8]; 125 g ai/ha", "result": 10}, {"measurement": "Plant response rating, Pigweed", "setting": "[9]; 31 g ai/ha", "result": 80}, {"measurement": "Plant response rating, Pigweed", "setting": "[9]; 125 g ai/ha", "result": 100}, {"measurement": "Plant response rating, Nutsedge, Yellow", "setting": "[10]; 16 g ai/ha", "result": 0}, {"measurement": "Plant response rating, Nutsedge, Yellow", "setting": "[10]; 31 g ai/ha", "result": 10}, {"measurement": "Plant response rating, Nutsedge, Yellow", "setting": "[10]; 62 g ai/ha", "result": 5}, {"measurement": "Plant response rating, Nutsedge, Yellow", "setting": "[10]; 125 g ai/ha", "result": 5}, {"measurement": "Plant response rating, Ryegrass, Italian", "setting": "[11]; 16 g ai/ha", "result": 0}, {"measurement": "Plant response rating, Ryegrass, Italian", "setting": "[11]; 31 g ai/ha", "result": 5}, {"measurement": "Plant response rating, Ryegrass, Italian", "setting": "[11]; 62 g ai/ha", "result": 0}, {"measurement": "Plant response rating, Ryegrass, Italian", "setting": "[11]; 125 g ai/ha", "result": 5}, {"measurement": "Plant response rating, Galium", "setting": "[12]; 31 g ai/ha", "result": 40}, {"measurement": "Plant response rating, Galium", "setting": "[12]; 125 g ai/ha", "result": 60}, {"measurement": "Plant response rating, Velvetleaf", "setting": "[13]; 16 g ai/ha", "result": 40}, {"measurement": "Plant response rating, Velvetleaf", "setting": "[13]; 31 g ai/ha", "result": 50}, {"measurement": "Plant response rating, Velvetleaf", "setting": "[13]; 62 g ai/ha", "result": 70}, {"measurement": "Plant response rating, Velvetleaf", "setting": "[13]; 125 g ai/ha", "result": 60}, {"measurement": "Plant response rating, Foxtail, Giant", "setting": "[14]; 31 g ai/ha", "result": 0}, {"measurement": "Plant response rating, Foxtail, Giant", "setting": "[14]; 125 g ai/ha", "result": 10}, {"measurement": "Plant response rating, Oilseed Rape", "setting": "[15]; 16 g ai/ha", "result": 5}, {"measurement": "Plant response rating, Oilseed Rape", "setting": "[15]; 31 g ai/ha", "result": 60}, {"measurement": "Plant response rating, Oilseed Rape", "setting": "[15]; 62 g ai/ha", "result": 60}, {"measurement": "Plant response rating, Oilseed Rape", "setting": "[15]; 125 g ai/ha", "result": 85}, {"measurement": "Plant response rating, Ragweed", "setting": "[16]; 31 g ai/ha", "result": 20}, {"measurement": "Plant response rating, Ragweed", "setting": "[16]; 125 g ai/ha", "result": 60}]}
